This note sets out measurements from patent publication US11319303B2 (WIGEN BIOMEDICINE TECHNOLOGY (SHANGHAI) CO., LTD., priority 2017, dated 2022).

pIC50: −log10 of the molar value. Where a name gives a salt, the structure may show the parent alone. Where only a bound is given, the exact number is not on record here.

In the assay the target is LC3B (Homo sapiens, UniProt Q9GZQ8). Description: Fluorescence Polarization (FP) Assay: displacement of FITC-labeled peptide from GST-LC3B. In kind it is binding. Particulars: Fluorescence Polarization assay; GST-LC3B 180 nM, FITC-labeled peptide 18 nM, 25° C.; read-out: IC50. How it is done: The compounds of the present invention for regulating the autophagy-related protein LC3B were tested by Fluorescence Polarization (FP) Assay.
Fluorescence Polarization (FP) Assay Test
As to `O=C1CC(C2CCNCC2)CC(=O)C1=CNCCN1CCN(CCO)CC1` (stereo not shown) [Compound 70, 2-(((2-(4-(2-hydroxyethyl)piperazin-1-yl)ethyl)amino)methylene)-5-(piperidin-4-yl) cyclohexane-1,3-dione HCl salt], the pIC50 is 3.00 to 4.00.

On to `O=C1CC(c2ccc(OCCOc3ccncc3)cc2)CC(=O)C1=CNCCN1CCN(CCO)CC1` (stereo not shown) [Compound 71, 2-(((2-(4-(2-hydroxyethyl)piperazin-1-yl)ethyl)amino)methylene)-5-(4-(2-(pyridin-4-yloxy)ethoxy)phenyl) cyclohexane-1,3-dione], for which the negative-log IC50 (pIC50) was 4.00 to 4.82. The value for `O=C1CC(c2ccc(-c3ccncc3)s2)CC(=O)C1=CNCCN1CCN(CCO)CC1` (stereo not shown) [Compound 72, 2-(((2-(4-(2-hydroxyethyl)piperazin-1-yl)ethyl)amino)methylene)-5-(5-(pyridin-4-yl)thiophen-2-yl)cyclohexane-1,3-dione] was greater than 5.52. As to `O=C1CC(c2ccc(-c3ccncc3)cc2)CC(=O)C1=CNCCN1CCN(CCO)CC1` (stereo not shown) [Compound 73, 2-(((2-(4-(2-hydroxyethyl)piperazin-1-yl)ethyl)amino)methylene)-5-(4-(pyridin-4-yl)phenyl) cyclohexane-1,3-dione], the negative logarithm of the IC50 (pIC50) is greater than 5.52. As to `CN(C)C=Nc1nc2c(C3CC(=O)C(=CNCCN4CCN(CCO)CC4)C(=O)C3)cccc2s1` (stereo not shown) [Compound 74, N′-(4-(4-(((2-(4-(2-hydroxyethyl)piperazin-1-yl)ethyl)amino)methylene)-3,5-dioxocyclohexyl)benzo[d]thiazol-2-yl)-N,N-dimethyl-formimidamide], the pIC50 is greater than 5.52.

As for `O=C1CC(c2cccc(Oc3ccncc3)c2)CC(=O)C1=CNCCN1CCN(CCO)CC1` (stereo not shown) [Compound 75, 2-(((2-(4-(2-hydroxyethyl)piperazin-1-yl)ethyl)amino)methylene)-5-(3-(pyridin-4-yloxy)phenyl) cyclohexane-1,3-dione], the negative-log IC50 (pIC50) was 4.82 to 5.52. With `CCOc1ncnc2c1ncn2-c1ccc(C2CC(=O)C(=CNCCN3CCN(CCO)CC3)C(=O)C2)cc1` (stereo not shown) [Compound 76, 5-(4-(6-ethoxy-9H-purin-9-yl)phenyl)-2-(((2-(4-(2-hydroxyethyl)piperazin-1-yl)ethyl)amino)methylene) cyclohexane-1,3-dione], the negative logarithm of the IC50 (pIC50) was 4.00 to 4.82. Take `O=C1CC(c2ccc(C(=O)N3CCOCC3)cc2)CC(=O)C1=CNCCN1CCN(CCO)CC1` (stereo not shown) [Compound 77, 2-(((2-(4-(2-hydroxyethyl)piperazin-1-yl)ethyl)amino)methylene)-5-(4-(morpholine-4-carbonyl)phenyl) cyclohexane-1,3-dione]: the pIC50 was 4.00 to 4.82. Consider `O=C1CC([C@]23C[C@H]4C[C@H](C[C@H](C4)C2)C3)CC(=O)C1=CNCCN1CCN(CCO)CC1` (stereo partly shown) [Compound 78], for which the pIC50 is 4.00 to 4.82. For `CN1CCN(c2ccc(C3CC(=O)C(=CNCCN4CCN(CCO)CC4)C(=O)C3)cn2)CC1` (stereo not shown) [Compound 79, 2-(((2-(4-(2-hydroxyethyl)piperazin-1-yl)ethyl)amino)methylene)-5-(6-(4-methylpiperazin-1-yl)pyridin-3-yl) cyclohexane-1,3-dione], the negative logarithm of the IC50 (pIC50) is 3.00 to 4.00. The value for `COCCOc1cc(C2CC(=O)C(=CNCCN3CCN(CCO)CC3)C(=O)C2)ccc1OC` (stereo not shown) [Compound 80, 2-(((2-(4-(2-hydroxyethyl)piperazin-1-yl)ethyl)amino)methylene)-5-(4-methoxy-3-(2-methoxyethoxy)phenyl) cyclohexane-1,3-dione] was 4.00 to 4.82; that for `O=C1CC(c2ccc(-c3nccs3)cc2)CC(=O)C1=CNCCN1CCN(CCO)CC1` (stereo not shown) [Compound 81, 2-(((2-(4-(2-hydroxyethyl)piperazin-1-yl)ethyl)amino)methylene)-5-(4-(thiazol-2-yl)phenyl) cyclohexane-1,3-dione] was 4.00 to 4.82. Consider `O=C1CC(c2ccc(-n3ccnc3)nc2)CC(=O)C1=CNCCN1CCN(CCO)CC1` (stereo not shown) [Compound 82, 5-(6-(1H-imidazol-1-yl)pyridin-3-yl)-2-(((2-(4-(2-hydroxyethyl)piperazin-1-yl)ethyl)amino)methylene) cyclohexane-1,3-dione], for which the negative logarithm of the IC50 (pIC50) is 4.00 to 4.82.

`O=C1CC(c2ccc(Nc3nccs3)nc2)CC(=O)C1=CNCCN1CCN(CCO)CC1` (stereo not shown) [Compound 83, 2-(((2-(4-(2-hydroxyethyl)piperazin-1-yl)ethyl)amino)methylene)-5-(6-(thiazol-2-ylamino)pyridin-3-yl)cyclohexane-1,3-dione]: the negative logarithm of the IC50 (pIC50) is 4.00 to 4.82. In the case of `COCCN1c2ccccc2Sc2cc(C3CC(=O)C(=CNCCN4CCN(CCO)CC4)C(=O)C3)ccc21` (stereo not shown) [Compound 84, 2-(((2-(4-(2-hydroxyethyl)piperazin-1-yl)ethyl)amino)methylene)-5-(10-(2-methoxyethyl)-10H-phenothiazin-3-yl)cyclohexane-1,3-dione], the pIC50 is 4.00 to 4.82. On to `Nc1nc2c(C3CC(=O)C(=CNCCN4CCN(CCO)CC4)C(=O)C3)cccc2s1` (stereo not shown) [Compound 85, 5-(2-aminobenzo[d]thiazol-4-yl)-2-(((2-(4-(2-hydroxyethyl)piperazin-1-yl)ethyl)amino)methylene)cyclohexane-1,3-dione], for which the negative-log IC50 (pIC50) is 4.00 to 4.82. Turning to `O=C1CC2(CCC2)CC(=O)C1=CNCCN1CCN(CCO)CC1` [Compound 86, 7-(((2-(4-(2-hydroxyethyl)piperazin-1-yl)ethyl)amino)methylene)-spiro[3.5]nonane-6,8-dione], the negative-log IC50 (pIC50) was 4.00 to 4.82.

Take `O=C1CC(c2ccc(-n3ccnc3)cc2)CC(=O)C1=CNCCN1CCN(CCO)CC1` (stereo not shown) [Compound 87, 5-(4-(1H-imidazol-1-yl)phenyl)-2-(((2-(4-(2-hydroxyethyl)piperazin-1-yl)ethyl)amino)methylene) cyclohexane-1,3-dione]: the pIC50 is 4.00 to 4.82. In the case of `O=C1CC(c2cnc3ccccc3n2)CC(=O)C1=CNCCN1CCN(CCO)CC1` (stereo not shown) [Compound 88, 2-(((2-(4-(2-hydroxyethyl)piperazin-1-yl)ethyl)amino)methylene)-5-(quinoxalin-2-yl)cyclohexane-1,3-dione], the pIC50 is 4.82 to 5.52. As to `O=C1CC(c2ccc(OCCN3CCOCC3)nc2)CC(=O)C1=CNCCN1CCN(CCO)CC1` (stereo not shown) [Compound 89, 2-(((2-(4-(2-hydroxyethyl)piperazin-1-yl)ethyl)amino)methylene)-5-(6-(2-morpholinoethoxy)pyridin-3-yl)cyclohexane-1,3-dione], the negative logarithm of the IC50 (pIC50) was 3.00 to 4.00. For `O=C1CC(c2cncnc2)CC(=O)C1=CNCCN1CCN(CCO)CC1` (stereo not shown) [Compound 90, 2-(((2-(4-(2-hydroxyethyl)piperazin-1-yl)ethyl)amino)methylene)-5-(pyrimidin-5-yl)cyclohexane-1,3-dione], the negative logarithm of the IC50 (pIC50) is 3.00 to 4.00. For the molecule `O=C1CC(c2cnc(N3CCOCC3)nc2)CC(=O)C1=CNCCN1CCN(CCO)CC1` (stereo not shown) [Compound 91, 2-(((2-(4-(2-hydroxyethyl)piperazin-1-yl)ethyl)amino)methylene)-5-(2-morpholino-pyrimidin-5-yl)cyclohexane-1,3-dione], the pIC50 was 4.00 to 4.82. Regarding `O=C1CC(c2ccc(S(=O)(=O)N3CCOCC3)cc2)CC(=O)C1=CNCCN1CCN(CCO)CC1` (stereo not shown) [Compound 92], the pIC50 is 4.00 to 4.82.

Consider `O=C1CC(c2cccc3[nH]ncc23)CC(=O)C1=CNCCN1CCN(CCO)CC1` (stereo not shown) [Compound 93, 2-(((2-(4-(2-hydroxyethyl)piperazin-1-yl)ethyl)amino)methylene)-5-(1H-indazol-4-yl)cyclohexane-1,3-dione], for which the pIC50 is 4.82 to 5.52. The value for `O=C1CC(C(F)(F)F)CC(=O)C1=CNCCN1CCN(CCO)CC1` (stereo not shown) [Compound 94, 2-(((2-(4-(2-hydroxyethyl)piperazin-1-yl)ethyl)amino)methylene)-5-(trifluoromethyl) cyclohexane-1,3-dione] was 4.00 to 4.82; that for `O=C1CC(c2ccccc2)OC(=O)C1=CNCCN1CCN(CCO)CC1` (stereo not shown) [Compound 95, 3-(((2-(4-(2-hydroxyethyl)piperazin-1-yl)ethyl)amino)methylene)-6-phenyldihydro-2H-pyran-2,4(3H)-dione] was 4.00 to 4.82; that for `O=C1CC(c2ccccc2)NC(=O)C1=CNCCN1CCN(CCO)CC1` (stereo not shown) [Compound 96, 3-(((2-(4-(2-hydroxyethyl)piperazin-1-yl)ethyl)amino)methylene)-6-phenylpiperidine-2,4-dione] was 3.00 to 4.00. The same measure for `O=C1CN(c2ccccc2)CC(=O)C1=CNCCN1CCN(CCO)CC1` [Compound 97, 4-(((2-(4-(2-hydroxyethyl)piperazin-1-yl)ethyl)amino)methylene)-1-phenylpiperidine-3,5-dione]: 4.00 to 4.82; for `O=C1CCN(c2ccccc2)C(=O)/C1=C\NCCN1CCN(CCO)CC1` [Compound 99, 3-(((2-(4-(2-hydroxyethyl)piperazin-1-yl)ethyl)amino)methylene)-1-phenylpiperidine-2,4-dione]: 3.00 to 4.00. For `O=C1CCC(c2ccc(F)cc2)C(=O)C1=CNCCN1CCN(CCO)CC1` (stereo not shown) [Compound 100, 4-(4-fluorophenyl)-2-(((2-(4-(2-hydroxyethyl)piperazin-1-yl)ethyl)amino)methylene)cyclohexane-1,3-dione], the pIC50 was 4.00 to 4.82. Turning to `O=C1C(=CNCCN2CCN(CCO)CC2)C(=O)C(c2ccccc2)CC1Cc1ccccc1` (stereo not shown) [Compound 101, 4-benzyl-2-(((2-(4-(2-hydroxyethyl)piperazin-1-yl)ethyl)amino)methylene)-6-phenylcyclohexane-1,3-dione], the pIC50 was 4.00 to 4.82. As for `COc1ccc(CN2CC(=O)C(=CNCCN3CCN(CCO)CC3)C(=O)C2)cc1` [Compound 102, 4-(((2-(4-(2-hydroxyethyl)piperazin-1-yl)ethyl)amino)methylene)-1-(4-methoxybenzyl)piperidine-3,5-dione], the pIC50 is 4.00 to 4.82. The value for `O=C1CN(Cc2ccccc2)CC(=O)C1=CNCCN1CCN(CCO)CC1` [Compound 103, 1-benzyl-4-(((2-(4-(2-hydroxyethyl)piperazin-1-yl)ethyl)amino)methylene)-piperidine-3,5-dione] was 4.00 to 4.82; that for `O=C1CN(C(=O)c2ccccc2)CC(=O)C1=CNCCN1CCN(CCO)CC1` [Compound 104, 1-benzoyl-4-(((2-(4-(2-hydroxyethyl)piperazin-1-yl)ethyl)amino)methylene)-piperidine-3,5-dione] was 4.00 to 4.82.
